# From patent US5328909A, “Cyclopropenone derivatives” (Mitsubishi Kasei Corporation, priority 1991, dated 1994)
# Like-named read-outs stand apart in the source and are kept apart here.
# What was measured:
# Type in all cases: biochemical
# papain = target: T1, papain (Carica papaya, UniProt P00784); assay: Thiol protease inhibitory activity against papain (P-3125, Sigma)
# T1 sequence (P00784 134-345): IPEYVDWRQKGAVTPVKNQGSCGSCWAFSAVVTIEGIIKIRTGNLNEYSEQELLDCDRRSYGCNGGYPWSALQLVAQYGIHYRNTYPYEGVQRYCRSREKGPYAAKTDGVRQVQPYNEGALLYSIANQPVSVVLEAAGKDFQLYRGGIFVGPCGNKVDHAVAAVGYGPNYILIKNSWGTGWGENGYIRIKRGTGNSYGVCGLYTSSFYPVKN
# Method: (§1) Inhibitory activity against papain (P-3125, Sigma) and cathepsin B (C-6286, Sigma) was assayed according to the method described in a literature [Biochemical Journal, 201, 189 (1982)]. Capthesin L was purified from rat kidney according to the method in a literature [Journal of Biochemistry, 100, 35 (1986)], and the inhibitory activity against it was assayed in the same manner as described in the above literature for cathepsin B. Further, m-calpain was purified from rat brain according to a known method [Journal of Biological Chemistry, 254, p.3210 (1984)] and the inhibitory activity against it was assayed by a method described in a literature [Journal of Biological Chemistry, 259, 12489 (1984)]. The results are showing in Tables 3 and 4. It is evident from Tables 3 and 4 that the compounds in the present invention have a potent inhibitory activity against thiol proteases such as papain, cathepsin B, cathepsin L, m-calpain or the like.
# cathepsin B = target: T2, cathepsin B (Bos taurus, UniProt P07688); assay: Thiol protease inhibitory activity against cathepsin B (C-6286, Sigma)
# T2 construct: purchased Sigma C-6286
# Method: as §1
# cathepsin L = target: T3, cathepsin L (Rattus norvegicus, UniProt P07154); assay: Thiol protease inhibitory activity against cathepsin L purified from rat kidney
# T3 construct: Capthesin L was purified from rat kidney; from tissue; host or cells: rat kidney
# T3 sequence (P07154 114-288 limits assumed): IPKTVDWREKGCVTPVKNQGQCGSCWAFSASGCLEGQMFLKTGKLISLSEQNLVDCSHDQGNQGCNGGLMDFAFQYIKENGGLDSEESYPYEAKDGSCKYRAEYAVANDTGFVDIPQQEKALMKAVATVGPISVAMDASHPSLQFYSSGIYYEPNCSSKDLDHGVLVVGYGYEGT
# T3 sequence (P07154 291-334 limits assumed): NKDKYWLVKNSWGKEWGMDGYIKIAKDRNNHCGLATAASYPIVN
# Method: as §1
# m-calpain = target: T4, m-calpain (Rattus norvegicus, UniProt Q07009); assay: Thiol protease inhibitory activity against m-calpain purified from rat brain
# T4 construct: m-calpain was purified from rat brain; from tissue; host or cells: rat brain
# T4 sequence (Q07009 20-700 limits assumed): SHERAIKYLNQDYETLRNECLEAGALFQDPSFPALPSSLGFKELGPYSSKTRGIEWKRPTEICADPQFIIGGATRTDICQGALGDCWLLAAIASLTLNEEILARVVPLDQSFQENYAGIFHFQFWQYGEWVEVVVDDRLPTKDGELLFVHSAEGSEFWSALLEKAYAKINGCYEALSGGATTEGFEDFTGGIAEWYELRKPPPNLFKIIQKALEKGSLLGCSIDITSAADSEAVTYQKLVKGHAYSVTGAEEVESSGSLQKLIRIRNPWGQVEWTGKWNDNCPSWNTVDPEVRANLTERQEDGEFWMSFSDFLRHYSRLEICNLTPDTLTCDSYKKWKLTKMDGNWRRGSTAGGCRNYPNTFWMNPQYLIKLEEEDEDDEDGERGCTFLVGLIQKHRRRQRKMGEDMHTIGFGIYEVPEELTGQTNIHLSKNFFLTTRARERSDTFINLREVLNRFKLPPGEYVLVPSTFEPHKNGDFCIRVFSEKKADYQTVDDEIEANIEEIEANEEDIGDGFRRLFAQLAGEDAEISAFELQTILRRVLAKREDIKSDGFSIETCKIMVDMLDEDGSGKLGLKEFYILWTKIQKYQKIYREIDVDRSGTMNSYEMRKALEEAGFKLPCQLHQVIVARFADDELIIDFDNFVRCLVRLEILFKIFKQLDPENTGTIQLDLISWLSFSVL
# T4 sequence (Q64537 1-270 partner): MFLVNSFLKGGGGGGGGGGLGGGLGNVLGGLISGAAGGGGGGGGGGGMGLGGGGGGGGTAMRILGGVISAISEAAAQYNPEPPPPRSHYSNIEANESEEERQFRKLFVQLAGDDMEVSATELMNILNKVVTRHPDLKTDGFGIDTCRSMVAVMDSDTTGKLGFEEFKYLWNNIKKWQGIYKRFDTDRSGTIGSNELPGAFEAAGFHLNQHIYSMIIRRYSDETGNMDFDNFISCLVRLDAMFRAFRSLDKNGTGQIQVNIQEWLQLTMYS
# Method: as §1
# [1] = Table 3, read-out: IC50 (μM) papain
# [2] = Table 3, read-out: IC50 (μM) cathepsin B
# [3] = Table 3, rat kidney enzyme, read-out: IC50 (μM) cathepsin L
# [4] = Table 3, rat brain enzyme, read-out: IC50 (μM) m-calpain
# [5] = Table 4, rat brain enzyme, read-out: Inhibitory activity against m-calpain IC50
IC50 (m-calpain; [5]),Compound,IC50 (papain; [1]),IC50 (cathepsin B; [2]),IC50 (cathepsin L; [3]),IC50 (m-calpain; [4]),also measured
,"CC(C)C[C@H](NC(=O)OCC1CCCCC1)C(=O)N[C@@H](C(C)C)[C@H](O)c1c(-c2ccccc2)c1=O [2 (No. 77), 2-[(1R, 2S)-2-{(S)-2-cyclohexylmethoxycarbonylamino-4-methylvalerylamino}-1-hydroxy-3-methylbutyl]-3-phenylcyclopropenone]",22 µM,0.044 µM,0.0012 µM,3.3 µM,
,"CC(C)C[C@H](NC(=O)OCC1CCCCC1)C(=O)N[C@@H](C(C)C)C(O)c1cc1=O (stereo partly drawn) [4 (No. 4), 2-[(2S)-2-((S)-2-cyclohexylmethoxycarbonylamino-4-methylvalerylamino)-1-hydroxy-3-methylbutyl]cyclopropenone]",5.8 µM,0.41 µM,,0.5 µM,
,"CC(C)C[C@H](NC(=O)OCc1ccccc1)C(=O)N[C@@H](CC(C)C)C(O)c1cc1=O (stereo partly drawn) [5 (No. 10), 2-[(2S)-2-((S)-2-benzyloxycarbonylamino-4-methylvalerylamino)-1-hydroxy-4-methylpentyl]cyclopropenone]",> 100 µM,3 µM,0.75 µM,2.3 µM,
,"CCCC[C@H](NC(=O)[C@H](CC(C)C)NC(=O)OCC1CCCCC1)C(O)c1cc1=O (stereo partly drawn) [6 (No. 15), 2-[(2S)-2-((S)-2-cyclohexylmethoxycarbonylamino-4-methylvalerylamino)-1-hydroxyhexyl]cyclopropenone]",0.076 µM,0.16 µM,0.54 µM,0.81 µM,
,"CCCC[C@H](NC(=O)[C@H](CC(C)C)NC(=O)OCc1ccccc1)C(O)c1cc1=O (stereo partly drawn) [7 (No. 16), 2-[(2S)-2-((S)-2-benzyloxycarbonylamino-4-methylvalerylamino)-1-hydroxyhexyl]cyclopropenone]",0.14 µM,0.32 µM,0.24 µM,2.4 µM,
,"CC(C)C[C@H](NC(=O)OCc1ccccc1)C(=O)N[C@@H](C(C)C)[C@@H](O)c1c(-c2ccccc2)c1=O [25 (No. 83), 2-[(1S, 2S)-2-((S)-2-benzyloxycarbonylamino-4-methylvalerylamino)-1-hydroxy-3-methylbutyl]-3-phenylcyclopropenone]",13 µM,32 µM,5.7 µM,2.1 µM,
,"CC(C)C[C@H](NC(=O)OCc1ccccc1)C(=O)N[C@@H](C(C)C)C(O)c1c(-c2ccccc2)c1=O (stereo partly drawn) [26 (No. 83), 2-[(2S)-2-((S)-2-benzyloxycarbonylamino-4-methylvalerylamino)-1-hydroxy-3-methylbutyl]-3-phenylcyclopropenone]",4.2 µM,43 µM,5.8 µM,1.6 µM,
0.65 µM,"CC(C)C[C@H](NS(=O)(=O)c1cccc2ccccc12)C(=O)N[C@@H](C(C)C)[C@@H](O)c1c(-c2ccccc2)c1=O [88 (No. 259), 2-[(1S, 2S)-1-hydroxy-3-methyl-2-{(S)-4-methyl-2-(1-naphtylsulfonylamino)valerylamino}butyl]-3-phenylcyclopropenone]",,,,,
0.46 µM,"CC(C)C[C@H](NS(=O)(=O)c1ccc2ccccc2c1)C(=O)N[C@@H](C(C)C)[C@@H](O)c1c(-c2ccccc2)c1=O [89 (No. 260), 2-[(1S, 2S)-1-hydroxy-3-methyl-2-{(S)-4-methyl-2-(2-naphtylsulfonylamino)valerylamino}butyl]-3-phenylcyclopropenone]",,,,,
1.9 µM,"CC(C)C[C@H](NS(=O)(=O)c1cccc2cccnc12)C(=O)N[C@@H](C(C)C)[C@@H](O)c1c(-c2ccccc2)c1=O [91 (No. 265), 2-[(1S, 2S)-1-hydroxy-3-methyl-2-{(S)-4-methyl-2-(8-quinolylsulfonylamino)valerylamino}butyl]-3-phenylcyclopropenone]",,,,,
,"CCCC[C@H](NC(=O)[C@H](CC(C)C)NC(=O)OCC1CCCCC1)C(O)c1c(-c2ccccc2)c1=O (stereo partly drawn) [94 (No. 280), 2-[(2S)-2-((S)-2-cyclohexylmethoxycarbonylamino-4-methylvalerylamino)-1-hydroxyhexyl]-3-phenylcyclopropenone]",0.074 µM,1 µM,0.062 µM,2.7 µM,
,"CCCC[C@H](NC(=O)[C@H](CC(C)C)NC(=O)OCc1ccccc1)C(O)c1c(-c2ccccc2)c1=O (stereo partly drawn) [95 (No. 281), 2-[(2S)-2-((S)-2-benzyloxycarbonylamino-4-methylvalerylamino]-1-hydroxyhexyl]-3-phenylcyclopropenone]",13 µM,11 µM,1.27 µM,3 µM,
,CCCC[C@H](NC(=O)[C@H](CC(C)C)NC(=O)OCc1ccccn1)C(O)c1c(-c2ccccc2)c1=O (stereo partly drawn) [96 (No. 282)],,28 µM,4.6 µM,5.7 µM,IC50 (papain): 7 µM
1.5 µM,"CC(C)C[C@H](NC(=O)OCC1CCCCC1)C(=O)N[C@@H](C(C)C)[C@@H](O)c1c(-c2ccc(F)cc2)c1=O [105 (No. 311), 2-[(1S, 2S)-2-((S)-2-cyclohexylmethoxycarbonylamino-4-methylvalerylamino)-1-hydroxy-3-methylbutyl]-3-(4-fluorophenyl)cyclopropenone]",,,,,
2.9 µM,"CC(C)C[C@H](NS(=O)(=O)c1ccccc1)C(=O)N[C@@H](C(C)C)[C@@H](O)c1c(-c2ccc(F)cc2)c1=O [111 (No. 317), 2-(4-fluorophenyl)-3-[(1S, 2S)-1-hydroxy-3-methyl-2-((S)-4-methyl-2-phenylsulfonylaminovalerylamino)butyl]cyclopropenone]",,,,,
4.3 µM,"CCCC[C@H](NC(=O)[C@H](CC(C)C)NC(=O)OCc1ccccc1)C(O)c1c(-c2ccc(F)cc2)c1=O (stereo partly drawn) [112 (No. 319), 2[(2S)-2-((S)-2-benzyloxycarbonylamino-4-methylvalerylamino)-1-hydroxyhexyl]-3-(4-fluorophenyl)cyclopropenone]",,,,,
,"CCCC[C@H](NC(=O)[C@H](CC(C)C)NC(=O)OCC1CCCCC1)C(O)c1c(-c2ccc([Si](C)(C)C)o2)c1=O (stereo partly drawn) [114 (No. 376), 2-[(2S)-2-((S)-2-cyclohexylmethoxycarbonylamino-4-methylvalerylamino)-1-hydroxy-1-hexyl]-3-(5-trimethylsilyl-2-furil)cyclopropenone]",0.68 µM,,,,IC50 (cathepsin B): 2.5 µM; IC50 (cathepsin L): 0.58 µM; IC50 (m-calpain): 5.6 µM
0.84 µM,"CC(C)C[C@H](NC(=O)OCC1CCCCC1)C(=O)N[C@@H](CC(C)C)C(=O)N[C@@H](C(C)C)[C@@H](O)c1c(-c2ccccc2)c1=O [118 (No. 467), 2-[(1S, 2S)-2-{(S)-2-((S)-2-cyclohexylmethoxycarbonylamino-4-methylvalerylamino)-4-methylvalerylamino}-1-hydroxy-3-methylbutyl]-3-phenylcyclopropenone]",,,,,
1.2 µM,"CC(C)C[C@H](NC(=O)[C@H](Cc1ccccc1)NC(=O)OCc1ccccc1)C(=O)N[C@@H](C(C)C)[C@@H](O)c1c(-c2ccccc2)c1=O [120 (No. 478), 2-[(1S, 2S)-2-{(S)-2-((S)-2-benzyloxycarbonylamino-3-phenylpropionylamino)-4-methylvalerylamino}-1-hydroxy-3-methylbutyl]-3-phenylcyclopropenone]",,,,,
